According to the supplement of paper PMC10331698:
± gives the standard deviation of the averaged measurements.

What was measured:
Experiment in all cases: level (log10 ratio to DMSO vehicle control); higher = higher biomarker level / cell amount than vehicle control
[1] = compound: CCOC(=O)CC(=O)C(F)(F)C(F)(F)F [Ethyl pentafluoropropionyl acetate] (in DMSO)
Description: (§1)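 BioMAP Diversity Plus panel of 12 human primary cell co-culture systems (3C, 4H, LPS, SAg, BT, BF4T, BE3C, CASM3C, HDF3CGF, KF3CT, MyoF, Mphg). Compounds were added 1 h before stimulation and left for 24 h (MyoF 48 h; BT 72 h for soluble read-outs or 6 d for IgG). Biomarkers were read by ELISA, cytotoxicity by SRB, PBMC viability and proliferation by Alamar Blue. Each well value was divided by the mean of 8 DMSO control wells on the same plate and log10 transformed; duplicate blinded samples were tested at 4 concentrations.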

[2] = compound: OCC(F)(F)C(F)(F)C(F)(F)C(F)F [1H,1H,5H-Perfluoropentanol] (in DMSO)
Description: as §1

[3] = compound: O=S(=O)(O)C(F)(F)C(F)(F)OC(F)(F)C(F)(F)F [Perfluoro(2-ethoxyethane)sulfonic acid] (in DMSO)
Description: as §1

[4] = compound: OCC(F)(F)OC(F)(F)C(F)(F)OC(F)(F)C(F)(F)OC(F)(F)CO [1H,1H,11H,11H-Perfluorotetraethylene glycol] (in DMSO)
Description: as §1

Octafluoroadipic acid = compound: O=C(O)C(F)(F)C(F)(F)C(F)(F)C(F)(F)C(=O)O [Octafluoroadipic acid] (in DMSO)
Description: as §1

[5] = compound: O=C(O)C(F)(OC(F)(F)C(F)(F)C(F)(F)F)C(F)(F)F [Ammonium perfluoro-2-methyl-3-oxahexanoate] (in Water)
Description: as §1

Perfluorononanoic acid = compound: O=C(O)C(F)(F)C(F)(F)C(F)(F)C(F)(F)C(F)(F)C(F)(F)C(F)(F)C(F)(F)F [Perfluorononanoic acid] (in DMSO)
Description: as §1

Row | Test System | level (log10) ([1]; 6700 nM) | level (log10) ([1]; 20000 nM) | level (log10) ([1]; 60000 nM) | level (log10) ([2]; 6700 nM) | level (log10) ([2]; 20000 nM) | level (log10) ([2]; 60000 nM) | level (log10) ([3]; 6700 nM) | level (log10) ([3]; 20000 nM) | level (log10) ([3]; 60000 nM) | level (log10) ([4]; 6700 nM) | level (log10) ([4]; 20000 nM) | level (log10) ([4]; 60000 nM) | level (log10) (Octafluoroadipic acid; 6700 nM) | level (log10) (Octafluoroadipic acid; 20000 nM) | level (log10) (Octafluoroadipic acid; 60000 nM) | level (log10) ([5]; 6700 nM) | level (log10) ([5]; 20000 nM) | level (log10) ([5]; 60000 nM) | level (log10) (Perfluorononanoic acid; 6700 nM) | level (log10) (Perfluorononanoic acid; 20000 nM)
1 | lMphg:IL-1alpha | -0.0145 ± 0.011 | -0.016 ± 0.024 | 0.0045 ± 0.0092 | -0.055 ± 0.017 | -0.0185 ± 0.005 | 0.011 ± 0.044 | 0.006 ± 0.011 | 0.012 ± 0.0071 | 0.0335 ± 0.026 | 0.012 ± 0.0057 | 0.0065 ± 0.04 | 0.0605 ± 0.053 | -0.0495 ± 0.013 | -0.041 ± 0.027 | 0.039 ± 0.031 | 0.0825 ± 0.059 | 0.079 ± 0.055 | 0.11 ± 0.021 | -0.017 ± 0.017 | 0.0495 ± 0.0035
2 | KF3CT:MMP-9 | -0.0165 ± 0.013 | -0.0005 ± 0.012 | -0.011 ± 0.0099 | -0.024 ± 0.045 | -0.008 ± 0.0071 | 0.0125 ± 0.04 | 0.009 ± 0.0085 | 0.036 ± 0.016 | 0.0515 ± 0.00071 | 0.0225 ± 0.021 | 0.062 ± 0.03 | 0.0725 ± 0.0078 | -0.0065 ± 0.005 | 0.0085 ± 0.015 | 0.0175 ± 0.015 | -0.008 ± 0.011 | 0.0415 ± 0.026 | 0.0695 ± 0.0035 | -0.0575 ± 0.053 | -0.097 ± 0.034
3 | lMphg:CCL3/MIP-1alpha | -0.0265 ± 0.026 | -0.0305 ± 0.0078 | 0.0075 ± 0.022 | -0.012 ± 0.024 | -0.011 ± 0.027 | 0.0095 ± 0.0078 | 0.0145 ± 0.025 | 0.0015 ± 0.0064 | 0.0065 ± 0.021 | -0.051 ± 0.051 | -0.0435 ± 0.026 | 0.015 ± 0.055 | -0.035 ± 0.024 | -0.0045 ± 0.023 | 0.002 ± 0.018 | -0.0685 ± 0.035 | -0.067 ± 0.0014 | -0.0185 ± 0.054 | 0.004 ± 0.0028 | 0.0175 ± 0.0021
4 | lMphg:CD40 | -0.0205 ± 0.0092 | -0.0135 ± 0.0092 | 0.003 ± 0.061 | 0.0015 ± 0.023 | -0.012 ± 0.016 | 0.007 ± 0.02 | -0.018 ± 0.02 | -0.013 ± 0.037 | -0.0215 ± 0.025 | -0.0235 ± 0.019 | -0.0385 ± 0.013 | -0.0755 ± 0.03 | -0.0065 ± 0.0021 | -0.0015 ± 0.0021 | -0.025 ± 0.048 | -0.0295 ± 0.0064 | -0.045 ± 0.0099 | -0.049 ± 0.011 | 0.002 ± 0.013 | -0.03 ± 0.03
